The record followed here is PubChem BioAssay (NCI).

Among the test systems are NCI-H522 lung; SK-MEL-2 melanoma; HOP-92 NSCLC; OVCAR-5 ovarian; COLO 205 colon; OVCAR-3 ovarian; CAKI-1 renal; SK-OV-3 ovarian; MDA-N; BT-549 breast.
Holding throughout (assay): DTP human tumour cell line panel, 48 h

Several values for one entry are separate records, joined by “and”; a condition that tells them apart may be missing. Identical values can stand only once.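 Test compounds were applied to cells in 96-well plates for 48 hours at 5 doses. GI50 is the concentration that inhibits growth by half. The concentration for full growth arrest is given as TGI.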

As usually defined, the TGI is the concentration at which net growth stops. A lower TGI goes with more potent growth arrest. As to `COc1ccccc1OCC(COC(=O)Nc1ccccc1)OC(=O)Nc1ccccc1` (configuration not stated), the TGI with NCI-H522 lung is over 100 µM; with SK-MEL-2 melanoma, 67.6 µM; in the assay on HOP-92 NSCLC, 28.7 µM; in the assay with OVCAR-5 ovarian, over 100 µM; in the assay with COLO 205 colon, over 100 µM; with OVCAR-3 ovarian, over 100 µM. The TGI in the assay with CAKI-1 renal and in the assay on SK-OV-3 ovarian was over 100 µM in each case.
Usually GI50 stands for the concentration giving 50% growth inhibition. With `CCC1(O)CC(OC2CC(N(C)C)C(OC3CC(O)C(OC4OC(C)C(=O)C=C4N)C(C)O3)C(C)O2)c2c(cc3c(c2O)C(=O)c2c(O)cccc2C3=O)C1C(=O)OC` (configuration not stated), the TGI in the assay with NCI-H522 lung was 0.319 µM; in the assay on SK-MEL-2 melanoma it was 0.104 µM and 0.0118 µM; in the assay with HOP-92 NSCLC, 1.41 µM and 2.8 µM; in the assay on OVCAR-5 ovarian, 1.37 µM and 2.04 µM; in the assay with COLO 205 colon it was 0.338 µM and 0.766 µM; in the assay on MDA-N, 0.207 µM and 0.139 µM. The TGI in the assay on OVCAR-3 ovarian was 1.18 µM and 0.624 µM; in the assay on CAKI-1 renal it was 0.308 µM and 0.0365 µM; in the assay on SK-OV-3 ovarian, 2.51 µM and 4.32 µM. The GI50 with HOP-92 NSCLC is 0.0377 µM; with OVCAR-5 ovarian, 0.0152 µM.
Consider `COC(C/C(=C/CO[Si](C(C)C)(C(C)C)C(C)C)C(=O)N(COCC[Si](C)(C)C)c1ccccc1I)OC`, for which the TGI is 29.9 µM in the assay on SK-MEL-2 melanoma; over 100 µM with HOP-92 NSCLC; 87.2 µM in the assay on OVCAR-5 ovarian; over 100 µM in the assay on COLO 205 colon; over 100 µM in the assay on MDA-N; 46 µM with OVCAR-3 ovarian. Further, the TGI in the assay with CAKI-1 renal and with SK-OV-3 ovarian was over 100 µM throughout.
Take `ClC(Cl)(Cl)C1CCOC1n1nnc2ccccc21` (configuration not stated): the TGI with NCI-H522 lung, in the assay with SK-MEL-2 melanoma, in the assay on OVCAR-5 ovarian, with COLO 205 colon, in the assay with MDA-N and in the assay with OVCAR-3 ovarian was over 100 µM in each case. The TGI in the assay with CAKI-1 renal is over 100 µM; in the assay on SK-OV-3 ovarian it was over 100 µM; in the assay on BT-549 breast, 86 µM.
In the case of `Cc1c(CNc2ccc(C(=O)NC(CCCNC(=O)c3ccccc3C(=O)O)C(=O)O)cc2)cnc2nc(N)nc(N)c12` (configuration not stated), the GI50 is 0.00428 µM in the assay on NCI-H522 lung; over 100 µM in the assay on SK-MEL-2 melanoma; over 100 µM in the assay on HOP-92 NSCLC; 1.72 µM with COLO 205 colon; over 100 µM in the assay with SK-OV-3 ovarian. For the same compound, the TGI in the assay on OVCAR-5 ovarian is over 100 µM; with COLO 205 colon, 4.74 µM; with OVCAR-3 ovarian it was over 100 µM; in the assay with SK-OV-3 ovarian, over 100 µM; in the assay with BT-549 breast it was 6.62 µM.
On to `N#CC(CCN1CCC(Nc2ccccc2)(c2nnnn2C2CCCCC2)CC1)(c1ccccc1)c1ccccc1`, for which the TGI with NCI-H522 lung, in the assay with SK-MEL-2 melanoma, with OVCAR-5 ovarian, in the assay with COLO 205 colon, in the assay with MDA-N and in the assay with OVCAR-3 ovarian was over 100 µM each time. The TGI in the assay with SK-OV-3 ovarian and in the assay with BT-549 breast was over 100 µM in each case.
With `NCCCN(CCCCN(CCCN)C(=O)OCc1ccccc1)C(=O)OCc1ccccc1`, the TGI with NCI-H522 lung is 85.4 µM; in the assay with SK-MEL-2 melanoma, over 100 µM; with HOP-92 NSCLC it was over 100 µM; in the assay with OVCAR-5 ovarian, over 100 µM; in the assay on COLO 205 colon it was over 100 µM; in the assay on OVCAR-3 ovarian, over 100 µM. Further, the TGI with CAKI-1 renal, in the assay on SK-OV-3 ovarian and with BT-549 breast was over 100 µM throughout.
With `O=c1[nH]c(=O)n(C2CC(O)C(CO)O2)cc1Oc1ccccc1` (configuration not stated), the TGI with NCI-H522 lung, with OVCAR-5 ovarian, with COLO 205 colon, with MDA-N, in the assay with OVCAR-3 ovarian and in the assay on CAKI-1 renal was over 100 µM each time. The concentration for total growth inhibition (TGI) in the assay on SK-OV-3 ovarian and in the assay with BT-549 breast was over 100 µM each time.
`O=c1[nH]nc(-c2ccccc2)n1/N=C/c1ccc([N+](=O)[O-])o1`: the TGI in the assay with NCI-H522 lung was 6.83 µM; in the assay on SK-MEL-2 melanoma, 11.6 µM; in the assay on HOP-92 NSCLC it was over 24.1 µM; with OVCAR-5 ovarian, 31.5 µM; with COLO 205 colon it was 8.47 µM; in the assay on MDA-N it was 12 µM. Besides, the TGI in the assay with OVCAR-3 ovarian amounted to 15.5 µM; in the assay on CAKI-1 renal it was 28.2 µM; in the assay on SK-OV-3 ovarian, 65.6 µM.
Take `COc1ccccc1-n1c(=O)n(C)c(=O)n1C(C)(C)C`: the TGI with NCI-H522 lung, with SK-MEL-2 melanoma, in the assay on OVCAR-5 ovarian, in the assay with COLO 205 colon, with MDA-N and with OVCAR-3 ovarian was over 100 µM throughout. In addition, the TGI with CAKI-1 renal, in the assay on SK-OV-3 ovarian and in the assay with BT-549 breast was over 100 µM each time.
Consider `COc1ccc(-n2c(=O)c3[nH]c(=S)[nH]c3n(-c3ccc(OC)cc3)c2=S)cc1`, for which the TGI with NCI-H522 lung, with SK-MEL-2 melanoma, in the assay with HOP-92 NSCLC, with OVCAR-5 ovarian, in the assay on COLO 205 colon and in the assay with OVCAR-3 ovarian was over 100 µM each time. The TGI in the assay with CAKI-1 renal, in the assay on SK-OV-3 ovarian and in the assay with BT-549 breast was over 100 µM each time.
Regarding `CC1=NN(c2cccc(Cl)c2)C2(C1=Cc1ccc(O)cc1)C(Cl)C(=O)N2c1nc2ccccc2s1` (configuration not stated), the TGI with NCI-H522 lung is 49 µM; in the assay with SK-MEL-2 melanoma, 45.9 µM; with HOP-92 NSCLC, 37.5 µM; in the assay on OVCAR-5 ovarian, over 100 µM; in the assay with MDA-N it was 64.8 µM; in the assay with OVCAR-3 ovarian it was over 100 µM. In addition, the TGI in the assay with CAKI-1 renal stood at 85.6 µM; in the assay with SK-OV-3 ovarian it was 57.4 µM.
In the case of `CC(C(=O)OCc1ccccc1)N(Cc1ccccc1)Cc1ccccc1` (configuration not stated), the TGI in the assay with NCI-H522 lung, with SK-MEL-2 melanoma, in the assay on HOP-92 NSCLC, with OVCAR-5 ovarian, in the assay on COLO 205 colon and in the assay with OVCAR-3 ovarian was over 100 µM in each case. The TGI in the assay with CAKI-1 renal and in the assay with SK-OV-3 ovarian was over 100 µM in each case.
`CCN1C/C(=C\c2ccc(Cl)cc2)c2nc(N)c(C#N)c(-c3ccc(Cl)cc3)c2C1`: the TGI in the assay with NCI-H522 lung, with SK-MEL-2 melanoma, in the assay with OVCAR-5 ovarian, with COLO 205 colon, in the assay on MDA-N and in the assay with OVCAR-3 ovarian was over 100 µM in each case. For the same compound, the TGI in the assay on CAKI-1 renal, in the assay with SK-OV-3 ovarian and in the assay on BT-549 breast was over 100 µM throughout.
Take `CC1CC/C(=C\c2ccc(F)cc2)C2=C1C(c1ccc(F)cc1)N1C(=O)CSC1=N2` (configuration not stated): the TGI in the assay with SK-MEL-2 melanoma, in the assay with COLO 205 colon, in the assay on MDA-N, in the assay with OVCAR-3 ovarian, in the assay with CAKI-1 renal and in the assay on SK-OV-3 ovarian was over 100 µM throughout. Also, the TGI in the assay with BT-549 breast is over 100 µM.
Turning to `N#C/C(=C/C=C/c1ccco1)C(N)=O`, the TGI in the assay with NCI-H522 lung, in the assay with SK-MEL-2 melanoma, in the assay on OVCAR-5 ovarian, with COLO 205 colon, in the assay with MDA-N and in the assay on OVCAR-3 ovarian was over 10 µM each time. The TGI in the assay with CAKI-1 renal and in the assay with SK-OV-3 ovarian was over 10 µM in each case.
Regarding `CCc1cccc2c3c([nH]c12)-c1ccccc1NC(=O)C3`, the TGI in the assay on SK-MEL-2 melanoma, in the assay on HOP-92 NSCLC, with OVCAR-5 ovarian, with COLO 205 colon, in the assay with OVCAR-3 ovarian and in the assay with CAKI-1 renal was over 100 µM in each case. The TGI with SK-OV-3 ovarian and with BT-549 breast was over 100 µM in each case.
In the case of `O=c1c2cc(C(F)(F)F)ccc2sc2c(NCCCNCCO)nc3ccccc3c12`, the GI50 with SK-MEL-2 melanoma is 1.92 µM; with HOP-92 NSCLC it was 1.08 µM; with OVCAR-5 ovarian, 1.63 µM; in the assay with OVCAR-3 ovarian it was 1.68 µM; with CAKI-1 renal, 1.48 µM; with BT-549 breast, 5.28 µM. Besides, the TGI came out at 3.75 µM in the assay on SK-MEL-2 melanoma; 2.4 µM in the assay on HOP-92 NSCLC; 3.04 µM with OVCAR-5 ovarian; 3.17 µM in the assay with OVCAR-3 ovarian; 2.81 µM in the assay on CAKI-1 renal; 24.9 µM with BT-549 breast.
Turning to `Cc1cc(C)c2c(c1)CC1(Cc3cc(C)c(C)cc3C1=O)C2=O` (configuration not stated), the TGI in the assay on NCI-H522 lung, with SK-MEL-2 melanoma, in the assay on HOP-92 NSCLC, in the assay on OVCAR-5 ovarian, in the assay with COLO 205 colon and in the assay with OVCAR-3 ovarian was over 100 µM each time. The concentration for total growth inhibition (TGI) with CAKI-1 renal and in the assay with BT-549 breast was over 100 µM in each case.
With `CCOC(=O)c1ccc(Nc2nc3ccccc3nc2-c2cccs2)cc1`, the TGI in the assay on NCI-H522 lung was 80.7 µM; in the assay on OVCAR-5 ovarian, over 100 µM; in the assay on COLO 205 colon, over 100 µM; with MDA-N it was over 100 µM; with OVCAR-3 ovarian, over 100 µM; in the assay with CAKI-1 renal it was over 100 µM.
As for `O=P1(N2CCOCC2)OCCO1`, the TGI with NCI-H522 lung, in the assay on HOP-92 NSCLC, with OVCAR-5 ovarian, in the assay on COLO 205 colon, with MDA-N and with CAKI-1 renal was over 100 µM throughout.
Turning to `N#Cc1nc2cc(Cl)ccc2nc1N1CCN(c2ccc([N+](=O)[O-])cc2)CC1`, the TGI in the assay on OVCAR-5 ovarian, in the assay with COLO 205 colon, with MDA-N, with OVCAR-3 ovarian, with CAKI-1 renal and with SK-OV-3 ovarian was over 100 µM each time. The compound further registered a TGI in the assay on BT-549 breast of over 100 µM.
`CN(Cc1cnc2nc(N)nc(N)c2n1)c1ccc(C(=O)NC23CC4CC(CC(C4)C2)C3)cc1`: the TGI came out at 23.6 µM with SK-MEL-2 melanoma; 24.7 µM in the assay on OVCAR-5 ovarian; 24 µM in the assay with COLO 205 colon; 30.5 µM with OVCAR-3 ovarian; 27.8 µM in the assay on CAKI-1 renal; 31.9 µM in the assay on SK-OV-3 ovarian. The TGI in the assay with BT-549 breast came out at 31.1 µM.
